The source made the active and inactive calls.
Key:
[1] = target: T1, G-protein coupled receptor 35 (Homo sapiens, UniProt Q9HC97); assay: SAR analysis of Antagonists of the GPR35 Receptor using an Image-Based Assay - Set 3. [Related pubchem assays (depositor defined):AID2013, AID2026]; format: functional
[2] = target: T2, Cannabinoid receptor 2 (Homo sapiens, UniProt P34972); assay: SAR analysis of antagonists of the Cannabinoid Receptor 2 using an Image-Based Assay. [Related pubchem assays (depositor defined):AID2013, AID2026]; format: functional
[3] = target: T3, Cannabinoid receptor 1 (Homo sapiens, UniProt P21554); assay: SAR analysis of antagonists of the Cannabinoid Receptor 1 using an Image-Based Assay - Set 4. [Related pubchem assays (depositor defined):AID2013, AID2026]; format: functional
[4] = target: T4, G-protein coupled receptor 55 (Homo sapiens, UniProt Q9Y2T6); assay: blockade of LPI-induced GPR55 arrestin translocation – imaging, U2OS, beta-arrestin-GFP, LPI agonist, set 2, SAR follow-up (AID 2820); format: functional
[5] = target: T4, G-protein coupled receptor 55; assay: inhibition of LPI-stimulated GPR55 beta-arrestin translocation – imaging, U2OS, beta-arrestin-GFP, LPI agonist, primary screen (AID 2013); format: functional;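 also: antagonist potency measured as reduced agonist-driven arrestin aggregation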
[6] = target: Tyrosine-protein phosphatase non-receptor type 5 (Homo sapiens, UniProt P54829); assay: PTPN5 enzyme inhibition – biochemical, fluorescence intensity, uHTS hits, confirmation (AID 602372); format: functional; conditions: read-out: IC50_Mean
[7] = target: Induced myeloid leukemia cell differentiation protein Mcl-1 (Homo sapiens, UniProt Q07820); format: functional
[8] = target: Tyrosine-protein phosphatase non-receptor type 11 (Homo sapiens, UniProt Q06124); assay: PTPN11 enzyme inhibitors – biochemical, selectivity assay for STEP inhibitor project, dose response (AID 602367); format: functional; conditions: read-out: IC50_Mean
[9] = target: T4, G-protein coupled receptor 55; assay: SAR Analysis of Selective Antagonists of GPR55 using an Image-Based Assay - Set 4. [Related pubchem assays (depositor defined):AID2013, AID2026]; format: functional
[10] = target: T2, Cannabinoid receptor 2; assay: SAR analysis of agonists of the Cannabinoid Receptor 2 using an Image-Based Assay - Set 3. [Related pubchem assays (depositor defined):AID2013, AID2026]; format: functional
[11] = target: T3, Cannabinoid receptor 1; assay: SAR analysis of antagonists of the Cannabinoid Receptor 1 using an Image-Based Assay - Set 2. [Related pubchem assays (depositor defined):AID2013, AID2026]; format: functional
[12] = target: T3, Cannabinoid receptor 1; assay: SAR analysis of agonists of the Cannabinoid Receptor 1 using an Image-Based Assay - Set 2. [Related pubchem assays (depositor defined):AID2013, AID2026]; format: functional
[13] = target: T1, G-protein coupled receptor 35; assay: SAR analysis of Agonists of the GPR35 Receptor using an Image-Based Assay - Set 2. [Related pubchem assays (depositor defined):AID2013, AID2026]; format: functional
[14] = target: T5, Dual specificity protein phosphatase 3 (Homo sapiens, UniProt P51452); assay: VHR phosphatase inhibition, dose response, selectivity assay for STEP inhibitor project, biochemical (AID 602374); format: functional; conditions: read-out: IC50_Mean
[15] = target: T2, Cannabinoid receptor 2; assay: SAR analysis of antagonists of the Cannabinoid Receptor 2 using an Image-Based Assay - Set 3. [Related pubchem assays (depositor defined):AID2013, AID2026]; format: functional
[16] = target: T6, Caspase-6 (Homo sapiens, UniProt P55212); assay: inhibition of CASP6 peptide cleavage – biochemical, VEID-R110 fluorescence, cherry-pick, dose response (AID 720632)
T6 sequence (P55212 whole entry): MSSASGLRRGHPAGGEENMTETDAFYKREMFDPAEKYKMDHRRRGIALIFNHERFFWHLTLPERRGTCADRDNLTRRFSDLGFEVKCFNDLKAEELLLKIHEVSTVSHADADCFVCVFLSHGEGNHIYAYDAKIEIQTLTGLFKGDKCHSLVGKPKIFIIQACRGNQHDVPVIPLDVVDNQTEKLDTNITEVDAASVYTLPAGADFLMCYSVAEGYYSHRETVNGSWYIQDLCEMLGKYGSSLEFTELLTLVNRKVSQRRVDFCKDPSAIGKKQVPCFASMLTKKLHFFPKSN

[17] = target: T2, Cannabinoid receptor 2; assay: SAR analysis of agonists of the Cannabinoid Receptor 2 using an Image-Based Assay. [Related pubchem assays (depositor defined):AID2013, AID2026]; format: functional
[18] = target: Peroxisome proliferator-activated receptor gamma/Nuclear receptor coactivator 2 (Homo sapiens, UniProt P37231); assay: TR-FRET dose response biochemical High Throughput Screening assay for agonists of the steroid receptor coactivator 2 (SRC-2) recruitment by the peroxisome proliferator-activated receptor gamma (PPAR gamma): non-selective agonists. [Related pubchem assays: 1297, 1032 ]; format: functional
[19] = target: T7, Coagulation factor XII (Homo sapiens, UniProt P00748); assay: Factor XIIa Dose Response Confirmation from Single Well HTS. [Related pubchem assays (depositor defined):AID701]; format: functional
T7 sequence (P00748 whole entry): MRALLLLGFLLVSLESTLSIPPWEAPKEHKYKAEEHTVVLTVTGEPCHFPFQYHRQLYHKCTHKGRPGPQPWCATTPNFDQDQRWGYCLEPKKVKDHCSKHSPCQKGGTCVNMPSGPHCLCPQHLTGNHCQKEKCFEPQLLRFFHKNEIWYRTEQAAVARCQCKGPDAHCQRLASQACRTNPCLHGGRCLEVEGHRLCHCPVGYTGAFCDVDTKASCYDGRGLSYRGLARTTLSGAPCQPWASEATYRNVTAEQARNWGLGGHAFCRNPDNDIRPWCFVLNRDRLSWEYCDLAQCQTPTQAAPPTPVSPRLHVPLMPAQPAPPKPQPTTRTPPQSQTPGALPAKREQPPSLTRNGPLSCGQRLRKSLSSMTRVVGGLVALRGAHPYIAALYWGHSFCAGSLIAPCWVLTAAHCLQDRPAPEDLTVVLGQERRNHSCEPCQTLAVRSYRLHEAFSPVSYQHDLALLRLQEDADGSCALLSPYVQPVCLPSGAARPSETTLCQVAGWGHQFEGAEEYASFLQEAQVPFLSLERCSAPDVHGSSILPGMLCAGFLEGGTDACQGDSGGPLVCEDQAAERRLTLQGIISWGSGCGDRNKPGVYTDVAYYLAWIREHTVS

[20] = target: Peroxisome proliferator-activated receptor gamma/Nuclear receptor coactivator 3 (Homo sapiens, UniProt P37231); assay: TR-FRET dose response biochemical High Throughput Screening assay for agonists of the steroid receptor coactivator 3 (SRC-3) recruitment by the peroxisome proliferator-activated receptor gamma (PPAR gamma): non-selective agonists. [Related pubchem assays: 1301 (Confirmation screen.), 1048 (Primary screen.)]; format: functional
[21] = target: Peroxisome proliferator-activated receptor gamma/Nuclear receptor coactivator 1 (Homo sapiens, UniProt P37231); assay: TR-FRET dose response biochemical High Throughput Screening assay for agonists of the steroid receptor coactivator 1 (SRC-1) recruitment by the peroxisome proliferator-activated receptor gamma (PPAR gamma): non-selective agonists. [Related pubchem assays (depositor defined):AID1300, AID1808, AID504735, AID631]; format: protein assay
[22] = target: T8, Tyrosine-protein phosphatase non-receptor type 7 (Homo sapiens, UniProt P35236); assay: inhibition of hematopoietic tyrosine phosphatase HePTP – biochemical, set 2, SAR follow-up (AID 449736); format: functional
T8 sequence (P35236 whole entry): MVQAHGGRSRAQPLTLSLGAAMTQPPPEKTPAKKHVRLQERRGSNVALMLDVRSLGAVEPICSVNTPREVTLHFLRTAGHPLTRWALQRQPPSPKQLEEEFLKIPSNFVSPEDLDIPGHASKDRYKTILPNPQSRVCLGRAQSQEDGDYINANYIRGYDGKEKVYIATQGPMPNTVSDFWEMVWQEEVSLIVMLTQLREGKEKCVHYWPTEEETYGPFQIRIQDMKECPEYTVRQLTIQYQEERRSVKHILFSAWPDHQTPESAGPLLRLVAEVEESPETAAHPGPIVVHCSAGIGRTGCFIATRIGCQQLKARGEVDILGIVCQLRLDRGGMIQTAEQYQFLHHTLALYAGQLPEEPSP

[23] = target: T9, Tyrosine-protein phosphatase non-receptor type 22 (Homo sapiens, UniProt Q9Y2R2); assay: SAR LYP1 Fluorescent Assay using OMFP substrate for In Vitro dose response studies - Set 3. [Related pubchem assays (depositor defined):AID1779, AID1784, AID2140, AID2686]; format: functional
T9 sequence (Q9Y2R2 whole entry): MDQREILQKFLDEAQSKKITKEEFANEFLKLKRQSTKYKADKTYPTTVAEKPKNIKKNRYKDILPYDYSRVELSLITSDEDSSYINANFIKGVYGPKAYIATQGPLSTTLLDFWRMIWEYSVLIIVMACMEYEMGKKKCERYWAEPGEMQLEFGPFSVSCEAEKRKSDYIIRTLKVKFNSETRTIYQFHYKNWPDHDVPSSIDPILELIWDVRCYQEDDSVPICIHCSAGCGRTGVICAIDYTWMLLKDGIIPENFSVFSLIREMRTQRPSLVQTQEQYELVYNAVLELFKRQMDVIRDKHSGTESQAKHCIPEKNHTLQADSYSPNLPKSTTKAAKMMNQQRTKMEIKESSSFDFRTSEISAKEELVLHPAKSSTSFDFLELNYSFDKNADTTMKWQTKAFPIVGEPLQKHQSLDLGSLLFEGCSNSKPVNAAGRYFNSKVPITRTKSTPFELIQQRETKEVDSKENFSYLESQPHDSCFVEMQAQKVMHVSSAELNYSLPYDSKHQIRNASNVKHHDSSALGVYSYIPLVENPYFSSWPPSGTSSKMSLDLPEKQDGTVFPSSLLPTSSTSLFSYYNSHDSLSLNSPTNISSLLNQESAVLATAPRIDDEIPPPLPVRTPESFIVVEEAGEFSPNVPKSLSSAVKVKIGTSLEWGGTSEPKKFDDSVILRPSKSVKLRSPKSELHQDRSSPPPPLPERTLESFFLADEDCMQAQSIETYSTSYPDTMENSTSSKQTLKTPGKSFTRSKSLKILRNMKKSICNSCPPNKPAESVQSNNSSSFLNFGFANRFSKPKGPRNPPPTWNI

[24] = target: T9, Tyrosine-protein phosphatase non-receptor type 22; assay: lymphoid phosphatase LYP inhibitors – biochemical, selectivity assay for STEP inhibitor project, dose response (AID 624241); format: functional
[25] = target: T10, Dual specificity protein phosphatase 6 (Rattus norvegicus, UniProt Q64346); format: functional;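 also: confirmatory in vitro dose-response testing of MKP-3 inhibition; recombinant His-tagged MKP-3 made in E. coli BL21 with OMFP substrate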
T10 sequence (Q64346 whole entry): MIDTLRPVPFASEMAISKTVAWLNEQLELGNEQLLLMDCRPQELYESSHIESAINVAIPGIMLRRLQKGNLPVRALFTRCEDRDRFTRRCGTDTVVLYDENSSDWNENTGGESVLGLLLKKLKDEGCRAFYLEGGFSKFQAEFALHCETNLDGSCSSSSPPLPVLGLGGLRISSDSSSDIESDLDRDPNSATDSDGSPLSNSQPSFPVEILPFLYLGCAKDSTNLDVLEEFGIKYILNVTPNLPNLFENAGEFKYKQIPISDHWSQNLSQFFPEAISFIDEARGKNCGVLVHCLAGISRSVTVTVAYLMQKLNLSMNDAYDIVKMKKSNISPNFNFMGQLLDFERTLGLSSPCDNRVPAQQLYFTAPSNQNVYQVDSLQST

[26] = target: T8, Tyrosine-protein phosphatase non-receptor type 7; assay: redox-active compounds inhibiting HePTP phosphatase – biochemical, fluorescence, mechanism study (AID 2068); format: functional
[27] = target: T9, Tyrosine-protein phosphatase non-receptor type 22; assay: inhibition of lymphoid tyrosine phosphatase LYP – biochemical, pCAP fluorogenic substrate, fluorescence, set 3, SAR follow-up (AID 449727); format: functional
[28] = target: T5, Dual specificity protein phosphatase 3; assay: SAR VHR1 Fluorescent Assay for In Vitro dose response studies Set 2. [Related pubchem assays (depositor defined):AID1654, AID1661, AID1878]; format: functional
[29] = target: Tyrosine-protein phosphatase non-receptor type 12 (Homo sapiens, UniProt Q05209); assay: SAR Selectivity Analysis of small molecule inhibitors of PEST using pCAP in a fluorescence assay. [Related pubchem assays (depositor defined):AID1779, AID1784, AID2135]; format: functional

T3 sequence (P21554 whole entry): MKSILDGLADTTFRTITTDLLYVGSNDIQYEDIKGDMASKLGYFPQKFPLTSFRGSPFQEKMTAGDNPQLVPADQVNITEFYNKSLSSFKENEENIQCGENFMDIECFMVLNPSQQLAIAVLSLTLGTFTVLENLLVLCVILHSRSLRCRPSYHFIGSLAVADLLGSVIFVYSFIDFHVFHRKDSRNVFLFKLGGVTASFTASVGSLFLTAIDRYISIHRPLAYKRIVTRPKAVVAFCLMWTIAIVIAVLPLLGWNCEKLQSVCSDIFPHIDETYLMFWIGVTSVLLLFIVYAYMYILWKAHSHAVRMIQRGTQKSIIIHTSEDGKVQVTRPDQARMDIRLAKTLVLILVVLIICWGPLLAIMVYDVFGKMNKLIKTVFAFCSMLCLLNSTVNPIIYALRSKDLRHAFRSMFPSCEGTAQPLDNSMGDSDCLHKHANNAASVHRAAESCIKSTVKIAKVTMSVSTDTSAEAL
T4 sequence (Q9Y2T6 whole entry): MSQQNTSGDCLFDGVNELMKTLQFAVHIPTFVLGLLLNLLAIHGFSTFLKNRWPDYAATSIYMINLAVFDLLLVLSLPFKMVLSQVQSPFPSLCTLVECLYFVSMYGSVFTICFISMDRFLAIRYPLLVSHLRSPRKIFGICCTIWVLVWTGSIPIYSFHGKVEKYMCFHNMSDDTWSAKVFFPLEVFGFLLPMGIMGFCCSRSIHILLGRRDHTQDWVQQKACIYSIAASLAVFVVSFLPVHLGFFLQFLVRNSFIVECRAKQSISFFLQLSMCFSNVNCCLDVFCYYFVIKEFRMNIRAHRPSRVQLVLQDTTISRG
T2 sequence (P34972 whole entry): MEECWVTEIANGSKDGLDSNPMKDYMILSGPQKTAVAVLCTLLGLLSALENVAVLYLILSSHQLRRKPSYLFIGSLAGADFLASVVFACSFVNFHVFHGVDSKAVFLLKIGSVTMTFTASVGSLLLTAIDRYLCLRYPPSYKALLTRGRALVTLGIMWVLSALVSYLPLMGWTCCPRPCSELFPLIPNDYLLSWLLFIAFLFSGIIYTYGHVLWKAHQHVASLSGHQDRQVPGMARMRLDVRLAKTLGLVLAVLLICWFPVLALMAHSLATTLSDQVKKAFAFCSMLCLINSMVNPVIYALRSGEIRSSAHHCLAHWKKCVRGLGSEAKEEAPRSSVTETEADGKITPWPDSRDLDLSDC
T5 sequence (P51452 whole entry): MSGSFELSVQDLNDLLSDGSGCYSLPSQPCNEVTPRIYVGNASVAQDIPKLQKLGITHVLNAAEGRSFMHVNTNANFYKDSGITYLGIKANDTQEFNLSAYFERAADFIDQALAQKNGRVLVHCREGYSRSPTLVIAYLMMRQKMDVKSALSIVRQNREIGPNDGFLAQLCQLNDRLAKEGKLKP
Tyrosine-protein phosphatase non-receptor type 11, sequence (Q06124 whole entry): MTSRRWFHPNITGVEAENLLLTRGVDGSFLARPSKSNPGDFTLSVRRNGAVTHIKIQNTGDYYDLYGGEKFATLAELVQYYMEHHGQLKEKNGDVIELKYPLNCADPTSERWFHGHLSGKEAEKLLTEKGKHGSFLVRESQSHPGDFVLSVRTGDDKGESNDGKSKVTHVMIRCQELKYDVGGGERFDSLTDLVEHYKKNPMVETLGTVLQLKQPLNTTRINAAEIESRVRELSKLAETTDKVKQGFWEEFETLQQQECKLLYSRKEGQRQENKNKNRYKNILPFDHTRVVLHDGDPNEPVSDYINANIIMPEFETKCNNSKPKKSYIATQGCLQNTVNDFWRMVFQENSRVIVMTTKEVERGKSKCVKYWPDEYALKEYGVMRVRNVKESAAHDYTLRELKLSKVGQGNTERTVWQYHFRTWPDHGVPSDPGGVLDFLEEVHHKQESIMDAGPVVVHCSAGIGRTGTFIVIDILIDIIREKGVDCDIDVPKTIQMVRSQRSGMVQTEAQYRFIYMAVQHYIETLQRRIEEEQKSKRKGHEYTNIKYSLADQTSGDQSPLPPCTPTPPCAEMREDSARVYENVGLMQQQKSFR
T1 sequence (Q9HC97 whole entry): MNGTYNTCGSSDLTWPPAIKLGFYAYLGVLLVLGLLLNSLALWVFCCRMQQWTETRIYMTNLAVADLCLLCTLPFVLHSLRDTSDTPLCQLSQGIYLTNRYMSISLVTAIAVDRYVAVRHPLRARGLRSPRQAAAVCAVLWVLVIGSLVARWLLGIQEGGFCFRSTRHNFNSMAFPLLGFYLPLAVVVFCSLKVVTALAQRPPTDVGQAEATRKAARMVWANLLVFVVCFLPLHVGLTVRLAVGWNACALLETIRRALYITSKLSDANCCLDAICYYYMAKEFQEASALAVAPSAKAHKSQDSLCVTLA
Tyrosine-protein phosphatase non-receptor type 5, sequence (P54829 whole entry): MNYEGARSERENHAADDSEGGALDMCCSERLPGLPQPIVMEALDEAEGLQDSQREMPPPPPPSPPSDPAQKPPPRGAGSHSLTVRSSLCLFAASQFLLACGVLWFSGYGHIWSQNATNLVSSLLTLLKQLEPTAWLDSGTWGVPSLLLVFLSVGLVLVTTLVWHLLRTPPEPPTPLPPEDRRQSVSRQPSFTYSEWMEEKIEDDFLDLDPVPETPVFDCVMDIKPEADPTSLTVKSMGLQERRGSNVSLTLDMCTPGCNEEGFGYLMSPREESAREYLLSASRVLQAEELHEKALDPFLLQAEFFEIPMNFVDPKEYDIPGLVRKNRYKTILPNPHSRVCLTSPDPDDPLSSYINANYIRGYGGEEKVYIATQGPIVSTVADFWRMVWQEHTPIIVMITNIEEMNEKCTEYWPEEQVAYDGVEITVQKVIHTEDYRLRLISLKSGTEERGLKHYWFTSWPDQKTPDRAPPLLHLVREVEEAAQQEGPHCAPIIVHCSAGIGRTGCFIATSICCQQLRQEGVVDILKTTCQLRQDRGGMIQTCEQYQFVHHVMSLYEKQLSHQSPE
Peroxisome proliferator-activated receptor gamma/Nuclear receptor coactivator 1, sequence (P37231 whole entry): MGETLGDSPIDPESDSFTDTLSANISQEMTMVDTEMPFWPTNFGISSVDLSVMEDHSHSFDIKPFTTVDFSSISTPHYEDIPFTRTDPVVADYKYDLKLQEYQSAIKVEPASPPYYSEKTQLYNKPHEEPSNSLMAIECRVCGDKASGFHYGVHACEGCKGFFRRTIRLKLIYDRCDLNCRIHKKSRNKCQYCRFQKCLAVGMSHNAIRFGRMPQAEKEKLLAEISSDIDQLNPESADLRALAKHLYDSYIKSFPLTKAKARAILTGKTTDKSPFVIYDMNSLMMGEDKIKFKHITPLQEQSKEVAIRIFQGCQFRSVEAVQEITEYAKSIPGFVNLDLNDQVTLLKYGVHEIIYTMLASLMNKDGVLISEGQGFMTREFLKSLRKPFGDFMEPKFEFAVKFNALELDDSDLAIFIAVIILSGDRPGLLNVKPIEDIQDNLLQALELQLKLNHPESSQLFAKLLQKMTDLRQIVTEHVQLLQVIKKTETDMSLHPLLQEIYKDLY
Peroxisome proliferator-activated receptor gamma/Nuclear receptor coactivator 1, sequence (Q15788 whole entry, further chain): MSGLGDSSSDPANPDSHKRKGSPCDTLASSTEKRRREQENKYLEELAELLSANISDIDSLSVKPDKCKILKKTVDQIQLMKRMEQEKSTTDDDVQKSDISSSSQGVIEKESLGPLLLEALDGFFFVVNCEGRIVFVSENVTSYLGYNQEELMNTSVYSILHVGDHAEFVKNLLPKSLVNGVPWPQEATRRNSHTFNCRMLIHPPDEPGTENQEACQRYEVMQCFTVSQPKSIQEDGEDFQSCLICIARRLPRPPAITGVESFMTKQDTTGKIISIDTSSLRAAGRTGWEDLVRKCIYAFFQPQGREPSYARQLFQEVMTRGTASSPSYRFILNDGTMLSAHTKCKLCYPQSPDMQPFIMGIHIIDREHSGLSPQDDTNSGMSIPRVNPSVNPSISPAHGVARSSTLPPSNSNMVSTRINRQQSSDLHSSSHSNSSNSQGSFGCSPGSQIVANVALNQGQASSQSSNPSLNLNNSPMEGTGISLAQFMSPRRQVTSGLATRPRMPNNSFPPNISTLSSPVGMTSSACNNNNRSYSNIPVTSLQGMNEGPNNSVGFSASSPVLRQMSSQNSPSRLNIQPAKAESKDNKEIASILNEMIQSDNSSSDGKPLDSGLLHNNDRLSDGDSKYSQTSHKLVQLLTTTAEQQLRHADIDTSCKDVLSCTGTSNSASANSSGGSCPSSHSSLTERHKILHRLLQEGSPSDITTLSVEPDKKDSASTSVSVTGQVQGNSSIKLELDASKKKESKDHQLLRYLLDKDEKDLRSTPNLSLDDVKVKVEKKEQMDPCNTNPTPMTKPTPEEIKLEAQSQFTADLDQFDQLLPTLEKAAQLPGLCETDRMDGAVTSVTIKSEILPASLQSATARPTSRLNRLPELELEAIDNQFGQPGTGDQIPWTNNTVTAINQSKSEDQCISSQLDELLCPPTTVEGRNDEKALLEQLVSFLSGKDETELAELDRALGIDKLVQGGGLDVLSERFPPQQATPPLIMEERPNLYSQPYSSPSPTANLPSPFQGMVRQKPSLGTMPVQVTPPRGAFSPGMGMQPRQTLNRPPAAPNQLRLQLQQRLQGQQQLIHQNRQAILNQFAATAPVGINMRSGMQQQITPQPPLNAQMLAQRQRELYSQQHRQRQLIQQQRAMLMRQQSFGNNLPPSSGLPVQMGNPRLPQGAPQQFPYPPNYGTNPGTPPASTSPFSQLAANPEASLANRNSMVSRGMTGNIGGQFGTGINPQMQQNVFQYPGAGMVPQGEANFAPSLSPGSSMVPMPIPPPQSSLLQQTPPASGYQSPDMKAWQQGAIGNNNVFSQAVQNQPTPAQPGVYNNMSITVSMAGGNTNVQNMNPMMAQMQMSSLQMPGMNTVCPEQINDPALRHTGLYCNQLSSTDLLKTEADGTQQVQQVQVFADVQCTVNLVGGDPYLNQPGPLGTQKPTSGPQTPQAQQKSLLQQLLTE

## Cc1cc(C)c2nc(-c3ccccn3)cc(C(=O)Nc3ccc(S(=O)(=O)Nc4onc(C)c4C)cc3)c2c1
[1]
  IC50: > 32 µM (inactive)
[2]
  IC50: > 32 µM (inactive)
[3]
  IC50: 24.6 µM (inactive)
[4]
  IC50: 0.136 µM (active)
[5]
  IC50: < 0.5 µM (active)
[6]
  IC50: 28.3 µM (inactive)
[7]
  IC50: 4.01 µM (active)
[8]
  IC50: 2.95 µM (active)
[9]
  IC50: 0.263 µM (active)
[10]
  EC50: > 32 µM (inactive)
[11]
  IC50: > 32 µM (inactive)
[12]
  EC50: > 32 µM (inactive)
[13]
  EC50: > 32 µM (inactive)
[14]
  IC50: 2.73 µM (active)
[15]
  IC50: > 32 µM (inactive)
[16]
  AC50: 14.7 µM (active)
[17]
  EC50: > 32 µM (inactive)

## O=C(CCSc1nnc2ccc3ccccc3n12)Nc1ccc(F)cc1
[18]
  EC50: 20.9 µM (not active)
[19]
  IC50: > 50 µM (inactive)
[20]
  EC50: > 79.4 µM (not active)
[21]
  EC50: 24.3 µM (inactive)

## CCc1ccc(NC2=NC(=O)/C(=C/c3ccc(OCC(=O)O)cc3)S2)cc1
[22]
  IC50: 3.25 µM (active)
[23]
  IC50: 31.7 µM (active)
[24]
  IC50: > 100 µM (inactive)
[25]
  IC50: > 100 µM (inactive)
[26]
  IC50: 4.53 µM (active)
[6]
  IC50: 24.3 µM (inactive)
[27]
  IC50: 12.9 µM (active)
[8]
  IC50: 9.52 µM (active)
[28]
  IC50: 18.9 µM (active)
[14]
  IC50: 10.4 µM (active)
[29]
  IC50: 12.6 µM (active)
